The values that follow come from PMC9269301, “Phytochemical Analysis, Antioxidant, Antimicrobial, and Cytotoxic Activity of Different Extracts of Xanthoparmelia stenophylla Lichen from Stara Planina, Serbia” (Plants, 2022).

A word on the MFC: it is the smallest concentration meeting the test's criterion for killing the fungus. Broadly, the MIC is the lowest concentration that inhibits growth of the organism. Read a low MIC as greater potency.

A short description of experiment [1]: Superoxide anion radical scavenging activity (NBT/NADH/PMS). Type of experiment: biochemical. The settings on record: mean ± SD, triplicate. On the procedure: All chemicals for the antioxidant activity test were purchased from Sigma Aldrich. All measurements were conducted in triplicate, and a Shimadzu UV-1800 spectrophotometer was used for all measurements during antioxidant activity experiments. The IC50 value was used for comparing different radical scavenging effects between investigated extracts, isolated compounds, and positive controls. […] [75] with modifications. […] To initiate the reaction, 0.1 mL of phenazine methosulfate (PMS) solution ([…] in 0.1 M phosphate buffer at pH 7.4) was added to each tube. The mixture was incubated at room temperature for 5 min, and then the absorbance was measured at 560 nm relative to the blank. Ascorbic acid, gallic acid, and Trolox were used as positive controls, and a decrease in absorbance indicated increased superoxide anion radical scavenging activity. […] Ac stands for absorbance of the control (which contains all reagents, except the tested extract or compound), and As is the absorbance of the sample.

Experiment [2] is described as follows: Hydroxyl radical scavenging activity (2-deoxyribose). Type of experiment: biochemical. The settings on record: mean ± SD, triplicate. On the procedure: All chemicals for the antioxidant activity test were purchased from Sigma Aldrich. All measurements were conducted in triplicate, and a Shimadzu UV-1800 spectrophotometer was used for all measurements during antioxidant activity experiments. The IC50 value was used for comparing different radical scavenging effects between investigated extracts, isolated compounds, and positive controls. The ability to inhibit non-site-specific peroxidation mediated by hydroxyl radicals for […], and XSH was determined using the method previously described in the literature. During the experiment, in a reaction mixture that contained 500 μL of 5.6 mM 2-deoxy-D-ribose in KH2PO4-NaOH buffer (50 mM, pH 7.4), 100 μL of 1.0 mM aqueous ascorbic acid, 100 μL of 1.0 mM H2O2, and 200 μL of premixed solution of 100 μM FeCl3 and […] EDTA (1:1 v/v), 100 μL of extract dissolved in water was added. The tubes were vigorously shaken, vortexed, and incubated for 30 min at 50 °C. […] The mixture was vortexed again and heated in a water bath for 30 min at 50 °C. […] Ac stands for absorbance of the control (which contains all reagents, except the tested extract or compound), and As is the absorbance of the sample.

Experiment [3] deals with MDA-MB 231 cells (breast cancer). The experiment in a line: MTT assay. The class given is cell-based, human. Conditions: data not shown.
The subject of the next experiment is S. cerevisiae (isolate). The experiment in a line: Microdilution with resazurin, antifungal. The class given is cell-based, Saccharomyces cerevisiae. Conditions: extracts and usnic acid. Here is the method:
The tested methanol, acetone, and n-hexane extracts, as well as the component (usnic acid) of X. stenophylla, were dissolved in 10% dimethyl sulfoxide (DMSO) and then diluted into the nutrient liquid medium. DMSO was obtained from Acros Organics (Fair Lawn, NJ, USA). Resazurin was obtained from Alfa Aesar GmbH & Co. (KG, Karlsruhe, Germany).
The antimicrobial activity of the extracts and components was tested against 19 microorganisms. The experiment involved 15 strains of bacteria (i.e., 6 standard strains: Staphylococcus aureus ATCC 6538, Bacillus subtilis ATCC 6633, Proteus mirabilis ATCC 12453, Pseudomonas aeruginosa ATCC 27853, Klebsiella pneumoniae ATCC 70063, and Escherichia coli ATCC 25922; 9 isolates: Staphylococcus aureus, Escherichia coli, Salmonella enterica, Salmonella Typhimurium, Proteus mirabilis, Klebsiella pneumoniae, Pseudomonas aeruginosa, Bacillus subtilis, and Bacillus cereus). In addition, four fungal strains (i.e., two standard strains: Candida albicans ATCC 10231 and Aspergillus niger ATCC 16888; two isolates: Saccharomyces cerevisiae and Candida albicans) were tested. All isolates were a generous gift from the Institute of Public Health, Kragujevac. The other microorganisms were provided from the collection held by the Microbiology Laboratory Faculty of Science, University of Kragujevac.
The bacterial suspensions were prepared by the direct colony method. The turbidity of the initial suspension was adjusted using a densitometer (DEN-1, BioSan, Riga, Latvia). When adjusted to the turbidity of the 0.5 McFarland’s standard (Andrews, 2005) the bacteria suspension contained approximately 10^8 colony-forming units (CFU)/mL, and the suspension of yeast contained 10^6 CFU/mL; 1:100 dilutions of the initial suspension were additionally prepared in sterile 0.85% saline. The suspensions of fungal spores were prepared by gentle stripping of spores from slopes with growing mycelia. The resulting suspensions were 1:1000 diluted in sterile 0.85% saline.
Antimicrobial activity was tested by determining the minimum inhibitory concentrations (MICs) and minimum microbicidal concentrations (MBCs) using the microdilution plate method with resazurin [56]. The 96-well plates were prepared by dispensing 100 μL of Mueller–Hinton broth for bacteria and Sabouard broth for fungi into each well. A 10 μL aliquot from the stock solution of the tested extract or component was added to the first row of the plate. Then, two-fold serial dilutions were performed using a multichannel pipette. The obtained concentration range was from 10 to 0.08 mg/mL. The method is described in detail in [76]. […]
Minimum microbicidal concentrations were determined by plating 10 μL of samples from wells where no indicator color change or no mycelia growth was recorded on a nutrient agar medium. […]

Marks after values point to notes of the source that are not given here.

With usnic acid, the “Superoxide Anion Radical Scavenging Activity (IC50)” value in experiment [1] is on record as 90.32 ± 0.95 ^a,b,c,d µg/mL. For the same substance, the “Hydroxyl Radical Scavenging Activity (IC50)” value in experiment [2] is listed as 120.05 ± 0.85 ^a,b,c,d µg/mL. Further, the “Overall inhibitory effect (MTT), in words” value in experiment [3] is listed as “of minor importance”. Also, in the experiment with S. cerevisiae (isolate), the MFC amounted to 10000 µg/mL and the MIC worked out at 5000 µg/mL.
